Reference: ChEMBL document CHEMBL1759884, “Synthesis and evaluation of bibenzyl glycosides as potent tyrosinase inhibitors” (Eur J Med Chem, 2011)

What follows are molecules tested against Tyrosinase (Agaricus bisporus) (assay: Inhibition of Tyrosinase).

Row | Compound | IC50
1 | OC[C@H]1O[C@@H](Oc2ccc(CCc3ccc(O)cc3O)c(O)c2)[C@H](O)[C@@H](O)[C@@H]1O | 770 nM
2 | OC[C@H]1O[C@@H](O[C@H]2[C@H](O)[C@@H](O)[C@H](Oc3ccc(CCc4ccc(O)cc4O)c(O)c3)O[C@@H]2CO)[C@H](O)[C@@H](O)[C@@H]1O | 680 nM
3 | OC[C@H]1O[C@H](O[C@H]2[C@H](O)[C@@H](O)[C@H](Oc3ccc(CCc4ccc(O)cc4O)c(O)c3)O[C@@H]2CO)[C@H](O)[C@@H](O)[C@@H]1O | 830 nM
4 | Oc1ccc(CCc2ccc(O)cc2O[C@@H]2OC[C@@H](O)[C@H](O)[C@H]2O)c(O)c1 | 1600 nM
5 | Oc1ccc(CCc2ccc(O[C@@H]3OC[C@@H](O)[C@H](O)[C@H]3O)cc2O)c(O)c1 | 430 nM
